For assay [1], the target named is Carbonic anhydrase 1 (Homo sapiens) (UniProt P00915). In words: Maximal activatory effect against human carbonic anhydrase I (hCA I) at a concentration of 1 mM.
The target is the same in assay [2]. In words: Maximal activatory effect against human carbonic anhydrase I (hCA I) at a concentration of 1 uM.
Assay [3] shares this target. In words: Maximal activatory effect against human carbonic anhydrase I (hCA I).
Assay [4] addresses Carbonic anhydrase 2 (Homo sapiens) (UniProt P00918). In words: Maximal activatory effect against human carbonic anhydrase II (hCA II).

The values below come from ChEMBL document CHEMBL1136165, “Carbonic anhydrase activators. The selective serotonin reuptake inhibitors fluoxetine, sertraline and citalopram are strong activators of isozymes I and II” (Bioorg Med Chem Lett, 2003).

Each structure is given as a SMILES string.

Chain of Carbonic anhydrase 1 (Homo sapiens) (P00915 2-261 limits assumed): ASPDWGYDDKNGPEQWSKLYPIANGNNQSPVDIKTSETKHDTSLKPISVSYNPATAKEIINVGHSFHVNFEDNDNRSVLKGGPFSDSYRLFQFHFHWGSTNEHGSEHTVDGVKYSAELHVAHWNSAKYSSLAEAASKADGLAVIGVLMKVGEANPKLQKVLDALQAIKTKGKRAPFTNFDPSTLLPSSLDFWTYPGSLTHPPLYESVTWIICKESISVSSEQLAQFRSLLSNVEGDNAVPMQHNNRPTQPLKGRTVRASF

Regarding `CNCCC(Oc1ccc(C(F)(F)F)cc1)c1ccccc1` (stereo not given), the Activity in assay [1] worked out at 210%; in assay [2] it was 175%.

Consider `CN[C@H]1CC[C@@H](c2ccc(Cl)c(Cl)c2)c2ccccc21`, for which the Activity in assay [3] amounted to 165%; in assay [2] it was 145%.

For `CN(C)CCCC1(c2ccc(F)cc2)OCc2cc(C#N)ccc21` (stereo not given), the Activity in assay [3] is 148%; in assay [2] it was 134%.

As for `NCCc1c[nH]cn1`, the results for the Activity in assay [1] and in assay [2] were 185% and 165%, respectively.

`N[C@@H](Cc1ccccc1)C(=O)O`: the values for the Activity in assay [4] and in assay [3] were 210% and 160%, respectively.
